Source: patent publication US20090081183A1, “HIV Transcription Repressor Complex and Compositions and Methods Based Thereon” (priority 1997, published 2009)
Read-outs that look alike come from different tables or passages of the source.

What was measured:
HIV-1 LTR [1] = assay: Tat-activated integrated LTR-CAT reporter assay in HeLa-CD4-LTR cells; format: cell-based
Experimental: (§1) Cell lines transfections and assays. Transfections of HeLa cells were performed as previously described (49). HeLa-CD4-LTR (9) cells were grown in DMEM supplemented with 10% FCS and transfected with 20 μg plasmid DNA (prepared using EndoFree plasmid kit, Qiagen, Valencia, Calif.) by calcium phosphate coprecipitation as per manufacturer's instructions (ProFection system, Promega, Madison, Wis.). After 30 minutes at room temperature, the solution was added to the cells (2.5-4×10^5 cells/plate). Twelve hours after transfection, the cells were washed with PBS and fed fresh medium. Forty-eight hours later the cells were harvested, cellular extracts prepared, and CAT assays performed as previously described (49). To control for the effect of transcription factor overexpression on general cellular promoters a reporter construct driven by the beta-actin promoter, pH[…]-actin-luciferase (66), was used in cotransfection and CAT expression normalized for luciferase activity. Other plasmids used have been previously described (2, 49). […] Up to 30 μl of cellular extract (normalized for protein concentration) in a final volume of 130 μl was used for luciferase reactions.
The LTR reporter carried by HeLa-CD4-LTR cell line exists within the native chromatin structure of the genome. […]

[2] = system: RCS oligonucleotide (−10 to +27 of HIV-1 LTR); format: binding
HIV-1 = conditions: HeLa cells cotransfected with pNL4-3 (CXCR4) or pYU-2 (CCR5)
Experimental: For virus production experiments 2×10^4 HeLa cells were transfected with 10 μl of Superfect (Qiagen, Valencia, Calif.) and 2.5-3.0 μg of DNA in a volume of 0.6 ml for 3 hours, washed with PBS, and then grown in 2 ml. Aliquots of culture medium were sampled for detection of HIV-1 p24^gag protein by antigen capture enzyme-linked immunosorbent assay according to the manufacturer's instructions (Coulter Corporation, Hialeah, Fla.).
As these cells support HIV replication but cannot be infected, a measurement of the effect of YY1 on a single round of viral replication can be made.
The influence of YY1 on viral production was assayed by testing of culture supernatant for the presence of the viral protein p24^gag.

HIV-1 LTR [3] = assay: Tat-activated, LTR-driven CAT expression, plasmid-based reporter, transient cotransfection; format: cell-based; conditions: data not shown
Experimental: as §1

| Compound | Tat-activated CAT expression from integrated LTR reporter (HIV-1 LTR [1]; 200 ng pAR-Tat, 2.5 μg CMV expression plasmid, normalized to β-actin-luciferase) | Complex formation with the RCS in EMSA ([2]; 20 ng to 100 ng added in the presence of 10 ng of LSF) | Complex formation with the RCS in EMSA ([2]; up to 100 ng protein alone) | HIV-1 production (p24gag in culture supernatant) (HIV-1) | Tat-activated, LTR-driven CAT expression (plasmid-based reporter) (HIV-1 LTR [3]) | Effect on YY1-mediated repression of integrated LTR-CAT expression (HIV-1 LTR [1]; with YY1 transfection, trichostatin-A added to culture medium (data not shown)) |
| --- | --- | --- | --- | --- | --- | --- |
| YY1: cellular transcription factor that binds the RCS and inhibits LTR-driven HIV transcription (SEQ ID NO: 3) | inhibited Tat-activated CAT activity | increasing levels of complex formation | did not form a detectable complex | dose-dependent inhibition | inhibited Tat-activated, LTR-driven CAT expression |  |
| CC(/C=C/C(=O)NO)=C\[C@@H](C)C(=O)c1ccc(N(C)C)cc1 [trichostatin-A, reference compound] |  |  |  |  |  | blocked |
